Results as given in US20050004094A1, “Cephem compounds” (priority 2003, published 2005).
Converted amounts (≈) assume the structure as drawn.

Test system: Pseudomonas aeruginosa FP 1456
Experiment: In vitro antibacterial activity, two-fold agar-plate dilution method (MIC)
Format: cell-based
Conditions: incubation at 37° C. for 20 hours; for MIC: FP1456, heart infusion agar, read-out: MIC (minimal inhibitory concentration)
Protocol: In vitro antibacterial activity was determined by the two-fold agar-plate dilution method as described below. One loopful of an overnight culture of each test strain in Trypticase-soy broth (10^6 viable cells per ml) was streaked on heart infusion agar (HI-agar) containing graded concentrations of representative test compound, and the minimal inhibitory concentration (MIC) was expressed in μg/ml after incubation at 37° C. for 20 hours.

MIC | MIC (minimal inhibitory concentration) (heart infusion agar) | SMILES
32 µg/mL (≈ 58.5 µM) | – | CC(C)(O/N=C(\C(=O)N[C@@H]1C(=O)N2C(C(=O)[O-])=C(C[n+]3ccccc3)CS[C@H]12)c1csc(N)n1)C(=O)O [Ceftazidime, reference compound]
1 µg/mL | – | Cn1c(CCN)cc[n+]1CC1=C(C(=O)O)N2C(=O)[C@@H](NC(=O)/C(=N\OC(C)(C)C(=O)O)c3nsc(N)n3)[C@H]2SC1.O=S(=O)([O-])O [Compound (a), 3-[3-(2-aminoethyl)-2-methyl-1-pyrazolio]methyl-7β-[(Z)-2-(5-amino-1,2,4-thiadiazol-3-yl)-2-(1-carboxy-1-methylethoxyimino)acetamido]-3-cephem-4-carboxylic acid hydrogen sulfate]
2 µg/mL (≈ 3.15 µM) | – | Cn1c(CCNC(=N)N)cc[n+]1CC1=C(C(=O)[O-])N2C(=O)[C@@H](NC(=O)/C(=N\OC(C)(C)C(=O)O)c3nsc(N)n3)[C@H]2SC1 [Compound (b), 3-{[3-(2-{[amino(imino)methyl]amino}ethyl)-2-methyl-1-pyrazolio]methyl}-7β-({(2Z)-2-(5-amino-1,2,4-thiadiazol-3-yl)-2-[(1-carboxy-1-methylethoxy)imino]ethanoyl}-amino)-3-cephem-4-carboxylate]
– | 2 µg/mL (≈ 3.37 µM) | Cn1cc(CCN)c[n+]1CC1=C(C(=O)[O-])N2C(=O)[C@@H](NC(=O)/C(=N\OC(C)(C)C(=O)O)c3nsc(N)n3)[C@H]2SC1 [Compound (c), 3-{[4-(2-aminoethyl)-2-methyl-1-pyrazolio]methyl}-7β-({(2Z)-2-(5-amino-1,2,4-thiadiazol-3-yl)-2-[(l-carboxy-1-methylethoxy)imino]ethanoyl}amino)-3-cephem-4-carboxylate]
